Experimental data as given in patent US8552253B2, “Screening of drug for attention deficit hyperactive disorder by using GIT1 knock-out mice as a novel ADHD mouse model” (Korea Advanced Institute of Science and Technology, priority 2011, dated 2013).

Assays:
Type in all cases: in vivo
GIT1 knock-out mouse [1] = experiment: Open field test of GIT1 knock-out mouse; settings: peritoneal injection just before test, one time, amphetamine 4 mg/kg/day, methylphenidate 2 mg/kg/day, 60 minutes, FIGS. 3B and 3C
Procedure: (§1) In order to observe hyperactivity of mice using the GIT1 knock-out mice of the present invention, an open field test was executed in a novel environment. A GIT1 knock-out mouse and a normal mouse (wild type) as a control, each mouse being aged 2 to 5 months, were prepared. An open space was prepared using a white box which is never exposed to the mice and has a dimension of 40-40-40 cm (width-length-height). After placing each mouse in the center of the open space and video shooting a distance of the mouse for 60 minutes, results thereof including, for example, a total distance, an average movement speed, a central space invasion rate, etc., were assayed through an activity analysis program. For analysis of behavior in the open space, amphetamine (4 mg/kg/day, one time) and methylphenidate (2 mg/kg/day, one time) used as ADHD protection drugs were administered through peritoneal injection just before placing the mouse therein, followed by immediately placing the mouse in the center of the open space.

normal mouse (wild type) = experiment: Open field test of normal mouse (control); settings: peritoneal injection just before test, one time, amphetamine 4 mg/kg/day, methylphenidate 2 mg/kg/day, 60 minutes
Procedure: as §1

GIT1 knock-out mouse [2] = experiment: Novel object recognition test of GIT1 knock-out mouse; settings: peritoneal injection 4 mg/kg/day, 20 minutes before the sample phase, versus saline, FIG. 6C
Procedure: A novel object recognition test for assessment of object recognition and memory performance using the GIT1 knock-out mouse was performed in the same open space box as used in the open field test. The novel object recognition test included a sample phase and a test phase. During the sample phase, the mouse was allowed to detect the same two objects placed in an open space box for 10 minutes and, by video shooting the sample phase, times of observing both the objects by the mouse were recorded. As a result, it was found in FIG. 6A that a difference in object detection time between the normal mouse and the GIT1 knock-out mouse is not statistically significant. Further, one of the same two objects, for example, was replaced by a novel object not exposed to the mouse and, after 24 hours, a test period was proceeded. Such a test period was 10 minutes and a time of observing two objects by the mouse was measured during the test period. In this regard, if the nose end of the mouse contacts the object or the mouse heads for the object within 2 cm before the same, this was defined as the observation. For observing recovery of the object recognition and/or memory performance, the present inventive mouse was administered with amphetamine or saline through peritoneal injection at a dose of 4 mg/kg/day and placed in an open space box, 20 minutes before the sample phase.

GIT1 knock-out mouse [3] = experiment: EEG analysis of theta section waveform in the frontal lobe of GIT1 knock-out mouse; settings: after administering amphetamine, compared to a control having saline, FIG. 7C
Procedure: A process of assaying an abnormal theta section waveform and a power spectrum density in the frontal lobe using the GIT1 knock-out mouse according to the present invention was executed after administering ketamine to a mouse through peritoneal injection at a dose of 150 mg/kg to anesthetize the mouse and fixing the head of the mouse to a stereotaxic instrument. EEG electrodes were inserted into both the right frontal lobe and the left frontal lobe. More particularly, a correct fixing position was set by calculating a correct coordinate having the front side of 2.8 mm and each lateral side of 0.8 mm with reference to the bregma, via the stereotaxic instrument. A grounding electrode was inserted into the occipital lobe. After inserting the electrodes and 1 week recovery period, the mouse was placed in an EEG chamber to measure a brain wave for 1 hour. EEG signals were amplified using a Grass model 7H polygraph (Grass Technologies) and digitalized at a sampling frequency of 2000 Hz using DIGIDATA 1320A (Molecular Devices), followed by acquisition of data using pClamp8.0 program (Axon Instruments) and analysis thereof.

Structure (SMILES) | movement distance of the GIT1 knock-out mouse in open space (hyperactivity) (GIT1 knock-out mouse [1]) | movement distance of the normal mouse in open space (normal mouse (wild type)) | object recognition ability (novel object recognition) (GIT1 knock-out mouse [2]) | abnormal theta waveform in the frontal lobe (EEG) (GIT1 knock-out mouse [3])
COC(=O)C(c1ccccc1)C1CCCCN1 (stereo not drawn) [methylphenidate] | significant recovery | considerably long distance | – | –
CC(N)Cc1ccccc1 (stereo not drawn) [amphetamine] | significant recovery | considerably long distance | can be recovered | favorably recovered
